Source: ChEMBL document CHEMBL3779870, “Differential metabolism of 3FDT and docetaxel in RLMs, rats, and HLMs” (Eur J Med Chem, 2016)

Assays:
[1] = target: T1, Cytochrome P450 1A2 (Homo sapiens, UniProt P05177); assay: Drug metabolism assessed as recombinant human CYP1A2 mediated metabolite formation at 10 uM preincubated for 5 mins followed by addition of NADPH measured after 120 mins by HPLC-TIC chromatography; type: ADME; settings: recombinant enzyme, 2 h
T1 sequence (P05177 whole entry): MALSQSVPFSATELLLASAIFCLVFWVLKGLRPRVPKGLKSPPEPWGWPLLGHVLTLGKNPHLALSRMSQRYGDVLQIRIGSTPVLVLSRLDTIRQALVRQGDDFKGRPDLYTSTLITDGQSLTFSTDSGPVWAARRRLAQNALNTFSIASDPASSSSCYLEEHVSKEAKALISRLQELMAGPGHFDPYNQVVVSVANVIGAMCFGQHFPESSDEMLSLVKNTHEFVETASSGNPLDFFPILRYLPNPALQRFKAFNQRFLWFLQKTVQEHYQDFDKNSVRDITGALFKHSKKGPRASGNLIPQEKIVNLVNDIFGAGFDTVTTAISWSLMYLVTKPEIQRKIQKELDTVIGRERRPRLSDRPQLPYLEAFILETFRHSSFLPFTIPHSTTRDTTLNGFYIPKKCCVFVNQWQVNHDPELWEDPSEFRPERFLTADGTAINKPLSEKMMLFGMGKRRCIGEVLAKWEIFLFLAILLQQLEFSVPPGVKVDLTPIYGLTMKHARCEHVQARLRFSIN

[2] = target: T2, Cytochrome P450 3A4 (Homo sapiens, UniProt P08684); assay: Drug metabolism assessed as recombinant human CYP3A4 mediated metabolite M2 formation at 10 uM preincubated for 5 mins followed by addition of NADPH measured after 120 mins by HPLC-TIC chromatography; type: ADME; settings: recombinant enzyme, 2 h
T2 sequence (P08684 whole entry): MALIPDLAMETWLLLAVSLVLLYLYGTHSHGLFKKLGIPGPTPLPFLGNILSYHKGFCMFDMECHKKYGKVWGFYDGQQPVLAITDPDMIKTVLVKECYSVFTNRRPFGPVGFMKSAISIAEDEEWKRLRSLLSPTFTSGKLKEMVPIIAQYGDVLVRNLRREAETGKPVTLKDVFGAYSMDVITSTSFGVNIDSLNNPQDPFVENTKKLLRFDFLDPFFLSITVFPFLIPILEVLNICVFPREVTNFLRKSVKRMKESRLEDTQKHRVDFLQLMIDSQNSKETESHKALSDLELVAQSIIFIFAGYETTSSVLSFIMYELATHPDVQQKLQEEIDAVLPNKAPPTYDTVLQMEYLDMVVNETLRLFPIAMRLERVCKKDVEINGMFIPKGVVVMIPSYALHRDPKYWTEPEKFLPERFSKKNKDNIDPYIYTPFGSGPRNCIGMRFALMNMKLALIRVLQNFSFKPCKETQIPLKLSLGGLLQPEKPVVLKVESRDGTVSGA

[3] = target: Cytochrome P450 2C9 (Homo sapiens, UniProt P11712); assay: Drug metabolism assessed as recombinant human CYP2C9 mediated metabolite formation at 10 uM preincubated for 5 mins followed by addition of NADPH measured after 120 mins by HPLC-TIC chromatography; type: ADME; settings: recombinant enzyme, 2 h
Cytochrome P450 2C9, sequence (P11712 whole entry): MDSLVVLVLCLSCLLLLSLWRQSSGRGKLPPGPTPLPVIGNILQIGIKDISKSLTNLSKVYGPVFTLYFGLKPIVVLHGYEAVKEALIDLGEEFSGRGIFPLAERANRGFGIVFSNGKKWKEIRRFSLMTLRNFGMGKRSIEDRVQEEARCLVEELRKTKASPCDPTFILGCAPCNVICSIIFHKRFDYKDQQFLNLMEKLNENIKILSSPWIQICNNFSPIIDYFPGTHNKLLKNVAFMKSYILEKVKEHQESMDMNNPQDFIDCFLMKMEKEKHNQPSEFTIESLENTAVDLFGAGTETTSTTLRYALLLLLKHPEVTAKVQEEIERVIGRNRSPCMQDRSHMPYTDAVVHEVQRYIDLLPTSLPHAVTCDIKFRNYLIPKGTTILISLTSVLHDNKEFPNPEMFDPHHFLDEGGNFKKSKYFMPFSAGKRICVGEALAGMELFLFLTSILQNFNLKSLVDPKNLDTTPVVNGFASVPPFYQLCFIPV

[4] = Drug metabolism in Sprague-Dawley rat feces assessed as metabolite M8 formation at 40 mg/kg, iv administered as single dose after 24 hrs by HPLC-TIC chromatography; type: ADME, organism-based; settings: in vivo
[5] = AUC (0 to t) in Sprague-Dawley rat; type: ADME, organism-based; settings: in vivo
[6] = target: T3, Cytochrome P450 3A5 (Homo sapiens, UniProt P20815); assay: Drug metabolism assessed as recombinant human CYP3A5 mediated metabolite M2 formation at 10 uM preincubated for 5 mins followed by addition of NADPH measured after 120 mins by HPLC-TIC chromatography; type: ADME; settings: recombinant enzyme, 2 h
T3 sequence (P20815 whole entry): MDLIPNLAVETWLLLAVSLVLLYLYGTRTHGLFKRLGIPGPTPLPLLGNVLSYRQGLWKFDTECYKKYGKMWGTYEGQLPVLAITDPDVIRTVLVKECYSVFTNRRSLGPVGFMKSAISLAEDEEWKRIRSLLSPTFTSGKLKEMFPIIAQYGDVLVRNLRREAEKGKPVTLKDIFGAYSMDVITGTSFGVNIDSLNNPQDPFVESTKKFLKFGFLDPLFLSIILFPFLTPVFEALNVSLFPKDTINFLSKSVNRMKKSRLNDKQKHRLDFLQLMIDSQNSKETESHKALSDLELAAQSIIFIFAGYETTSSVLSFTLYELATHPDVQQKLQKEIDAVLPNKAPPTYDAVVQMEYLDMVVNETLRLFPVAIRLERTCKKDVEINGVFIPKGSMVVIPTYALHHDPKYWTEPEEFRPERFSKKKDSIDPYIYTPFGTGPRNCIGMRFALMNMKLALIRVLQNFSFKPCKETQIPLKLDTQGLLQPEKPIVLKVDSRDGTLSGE

[7] = Drug metabolism in Sprague-Dawley rat feces assessed as 7-epi-3FDT formation at 40 mg/kg, iv administered as single dose after 24 hrs by HPLC-TIC chromatography; type: ADME, organism-based; settings: in vivo
[8] = Total clearance in Sprague-Dawley rat plasma; type: ADME, organism-based
[9] = target: T2, Cytochrome P450 3A4; assay: Drug metabolism assessed as recombinant human CYP3A4 mediated metabolite M1 formation at 10 uM preincubated for 5 mins followed by addition of NADPH measured after 120 mins by HPLC-TIC chromatography; type: ADME; settings: recombinant enzyme, 2 h
[10] = target: T4, Cytochrome P450 2B6 (Homo sapiens, UniProt P20813); assay: Drug metabolism assessed as recombinant human CYP2B6 mediated metabolite formation at 10 uM preincubated for 5 mins followed by addition of NADPH measured after 120 mins by HPLC-TIC chromatography; type: ADME; settings: recombinant enzyme, 2 h
T4 sequence (P20813 whole entry): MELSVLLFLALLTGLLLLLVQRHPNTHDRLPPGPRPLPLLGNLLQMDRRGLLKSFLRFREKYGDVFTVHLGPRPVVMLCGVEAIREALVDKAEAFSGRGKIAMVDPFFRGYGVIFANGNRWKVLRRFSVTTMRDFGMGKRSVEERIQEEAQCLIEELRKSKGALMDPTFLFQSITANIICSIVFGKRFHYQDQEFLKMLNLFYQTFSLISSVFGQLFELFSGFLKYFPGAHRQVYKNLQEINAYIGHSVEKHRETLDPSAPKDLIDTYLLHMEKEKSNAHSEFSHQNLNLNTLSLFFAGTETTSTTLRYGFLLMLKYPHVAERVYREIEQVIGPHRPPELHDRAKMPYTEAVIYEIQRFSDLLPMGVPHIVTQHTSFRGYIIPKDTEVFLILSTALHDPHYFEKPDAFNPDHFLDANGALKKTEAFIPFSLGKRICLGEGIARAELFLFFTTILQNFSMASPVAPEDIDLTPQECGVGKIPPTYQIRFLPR

[11] = target: Cytochrome P450 2E1 (Homo sapiens, UniProt P05181); assay: Drug metabolism assessed as recombinant human CYP2E1 mediated metabolite M4 formation at 10 uM preincubated for 5 mins followed by addition of NADPH measured after 120 mins by HPLC-TIC chromatography; type: ADME; settings: recombinant enzyme, 2 h
Cytochrome P450 2E1, sequence (P05181 whole entry): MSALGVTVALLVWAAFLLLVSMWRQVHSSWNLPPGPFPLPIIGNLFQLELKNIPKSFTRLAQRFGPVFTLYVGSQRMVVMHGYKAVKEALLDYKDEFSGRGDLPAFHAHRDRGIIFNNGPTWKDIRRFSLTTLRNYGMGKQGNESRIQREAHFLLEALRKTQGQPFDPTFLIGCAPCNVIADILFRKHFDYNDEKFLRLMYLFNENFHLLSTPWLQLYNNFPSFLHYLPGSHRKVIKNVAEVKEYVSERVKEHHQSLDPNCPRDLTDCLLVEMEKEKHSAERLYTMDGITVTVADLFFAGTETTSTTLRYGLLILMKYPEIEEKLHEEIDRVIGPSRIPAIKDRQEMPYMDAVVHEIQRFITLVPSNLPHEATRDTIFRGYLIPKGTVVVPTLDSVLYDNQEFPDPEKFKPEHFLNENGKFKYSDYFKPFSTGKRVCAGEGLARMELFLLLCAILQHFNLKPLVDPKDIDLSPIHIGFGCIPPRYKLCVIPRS

[12] = target: T5, Cytochrome P450 2C8 (Homo sapiens, UniProt P10632); assay: Drug metabolism assessed as recombinant human CYP2C8 mediated metabolite formation at 10 uM preincubated for 5 mins followed by addition of NADPH measured after 120 mins by HPLC-TIC chromatography; type: ADME; settings: recombinant enzyme, 2 h
T5 sequence (P10632 whole entry): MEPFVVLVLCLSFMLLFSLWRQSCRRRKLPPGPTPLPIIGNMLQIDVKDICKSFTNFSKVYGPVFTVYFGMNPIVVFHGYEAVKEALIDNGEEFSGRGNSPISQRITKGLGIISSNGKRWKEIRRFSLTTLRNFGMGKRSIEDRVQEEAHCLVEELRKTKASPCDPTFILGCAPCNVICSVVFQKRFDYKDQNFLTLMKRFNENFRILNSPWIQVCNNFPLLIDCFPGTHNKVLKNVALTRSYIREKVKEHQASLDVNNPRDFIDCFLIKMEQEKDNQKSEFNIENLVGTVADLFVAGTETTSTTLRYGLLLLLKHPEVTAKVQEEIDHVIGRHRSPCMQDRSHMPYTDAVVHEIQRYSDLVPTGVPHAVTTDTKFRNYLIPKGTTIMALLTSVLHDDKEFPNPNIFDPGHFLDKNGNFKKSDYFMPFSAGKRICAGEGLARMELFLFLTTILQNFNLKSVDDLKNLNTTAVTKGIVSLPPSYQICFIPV

[13] = Drug metabolism in Sprague-Dawley rat urine assessed as metabolite M3 formation at 40 mg/kg, iv administered as single dose after 24 hrs by HPLC-TIC chromatography; type: ADME, organism-based; settings: in vivo
[14] = Apparent volume of distribution in Sprague-Dawley rat; type: ADME, organism-based; settings: in vivo, read-out: Vd(app)
[15] = Drug metabolism in Sprague-Dawley rat feces assessed as metabolite M7 formation at 40 mg/kg, iv administered as single dose after 24 hrs by HPLC-TIC chromatography; type: ADME, organism-based; settings: in vivo
[16] = Drug metabolism in Sprague-Dawley rat feces assessed as metabolite M3 formation at 40 mg/kg, iv administered as single dose after 24 hrs by HPLC-TIC chromatography; type: ADME, organism-based; settings: in vivo
[17] = target: T2, Cytochrome P450 3A4; assay: Drug metabolism assessed as recombinant human CYP3A4 mediated metabolite M3 formation at 10 uM preincubated for 5 mins followed by addition of NADPH measured after 120 mins by HPLC-TIC chromatography; type: ADME; settings: recombinant enzyme, 2 h
[18] = Cytotoxicity against human SKOV3 cells; type: functional, cell-based; settings: SK-OV-3
[19] = Drug metabolism in Sprague-Dawley rat urine assessed as metabolite M2 formation at 40 mg/kg, iv administered as single dose after 24 hrs by HPLC-TIC chromatography; type: ADME, organism-based; settings: in vivo
[20] = target: T6, Cytochrome P450 2A6 (Homo sapiens, UniProt P11509); assay: Drug metabolism assessed as recombinant human CYP2A6 mediated metabolite formation at 10 uM preincubated for 5 mins followed by addition of NADPH measured after 120 mins by HPLC-TIC chromatography; type: ADME; settings: recombinant enzyme, 2 h
T6 sequence (P11509 whole entry): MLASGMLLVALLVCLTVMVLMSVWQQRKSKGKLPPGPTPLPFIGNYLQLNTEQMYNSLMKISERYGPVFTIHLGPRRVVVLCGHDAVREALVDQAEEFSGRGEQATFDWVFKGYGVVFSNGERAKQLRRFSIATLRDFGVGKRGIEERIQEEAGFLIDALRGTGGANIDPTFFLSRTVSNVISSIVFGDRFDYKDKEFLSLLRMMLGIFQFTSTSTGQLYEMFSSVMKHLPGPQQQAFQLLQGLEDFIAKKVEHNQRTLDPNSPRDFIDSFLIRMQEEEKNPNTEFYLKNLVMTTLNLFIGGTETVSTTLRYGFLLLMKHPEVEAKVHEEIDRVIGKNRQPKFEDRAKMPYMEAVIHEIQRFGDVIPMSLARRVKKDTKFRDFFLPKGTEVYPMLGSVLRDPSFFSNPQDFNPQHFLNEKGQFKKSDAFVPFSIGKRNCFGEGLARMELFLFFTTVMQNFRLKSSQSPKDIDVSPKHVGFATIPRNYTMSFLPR

[21] = Drug metabolism in Sprague-Dawley rat urine assessed as metabolite M4 formation at 40 mg/kg, iv administered as single dose after 24 hrs by HPLC-TIC chromatography; type: ADME, organism-based; settings: in vivo
[22] = target: Cytochrome P450 2C19 (Homo sapiens, UniProt P33261); assay: Drug metabolism assessed as recombinant human CYP2C19 mediated metabolite formation at 10 uM preincubated for 5 mins followed by addition of NADPH measured after 120 mins by HPLC-TIC chromatography; type: ADME; settings: recombinant enzyme, 2 h
Cytochrome P450 2C19, sequence (P33261 whole entry): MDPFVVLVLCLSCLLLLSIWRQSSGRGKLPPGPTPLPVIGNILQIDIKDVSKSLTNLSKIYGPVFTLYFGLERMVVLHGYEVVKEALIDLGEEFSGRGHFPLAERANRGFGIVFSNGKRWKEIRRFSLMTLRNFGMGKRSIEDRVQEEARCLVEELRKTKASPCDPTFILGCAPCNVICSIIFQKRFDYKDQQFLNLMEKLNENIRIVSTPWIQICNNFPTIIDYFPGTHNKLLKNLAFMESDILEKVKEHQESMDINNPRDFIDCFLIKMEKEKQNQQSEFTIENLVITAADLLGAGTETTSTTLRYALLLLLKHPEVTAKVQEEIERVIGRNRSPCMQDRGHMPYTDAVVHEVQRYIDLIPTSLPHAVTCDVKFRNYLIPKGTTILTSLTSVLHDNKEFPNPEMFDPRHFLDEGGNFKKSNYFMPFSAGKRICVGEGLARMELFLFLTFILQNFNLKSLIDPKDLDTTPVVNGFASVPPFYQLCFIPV

[23] = Drug metabolism in Sprague-Dawley rat feces assessed as metabolite M2 formation at 40 mg/kg, iv administered as single dose after 24 hrs by HPLC-TIC chromatography; type: ADME, organism-based; settings: in vivo
[24] = Drug metabolism in Sprague-Dawley rat feces assessed as metabolite M4 formation at 40 mg/kg, iv administered as single dose after 24 hrs by HPLC-TIC chromatography; type: ADME, organism-based; settings: in vivo
[25] = Drug metabolism in Sprague-Dawley rat urine assessed as metabolite M1 formation at 40 mg/kg, iv administered as single dose after 24 hrs by HPLC-TIC chromatography; type: ADME, organism-based; settings: in vivo
[26] = Drug metabolism in Sprague-Dawley rat feces assessed as metabolite M6 formation at 40 mg/kg, iv administered as single dose after 24 hrs by HPLC-TIC chromatography; type: ADME, organism-based; settings: in vivo
[27] = target: T3, Cytochrome P450 3A5; assay: Drug metabolism assessed as recombinant human CYP3A5 mediated metabolite M1 formation at 10 uM preincubated for 5 mins followed by addition of NADPH measured after 120 mins by HPLC-TIC chromatography; type: ADME; settings: recombinant enzyme, 2 h
[28] = system: Plasma; assay: Drug metabolism in Sprague-Dawley rat plasma assessed as metabolite M3 formation at 40 mg/kg, iv administered as single dose after 4 to 24 hrs by HPLC-TIC chromatography; type: ADME, organism-based; settings: in vivo
[29] = system: Plasma; assay: Drug metabolism in Sprague-Dawley rat plasma assessed as metabolite M4 formation at 40 mg/kg, iv administered as single dose after 4 to 24 hrs by HPLC-TIC chromatography; type: ADME, organism-based; settings: in vivo
[30] = system: Plasma; assay: Drug metabolism in Sprague-Dawley rat plasma assessed as 7-epi-3FDT formation at 40 mg/kg, iv administered as single dose after 4 to 24 hrs by HPLC-TIC chromatography; type: ADME, organism-based; settings: in vivo
[31] = system: Plasma; assay: Drug metabolism in Sprague-Dawley rat plasma assessed as metabolite M1 formation at 40 mg/kg, iv administered as single dose after 4 to 24 hrs by HPLC-TIC chromatography; type: ADME, organism-based; settings: in vivo
[32] = AUC (0 to infinity) in Sprague-Dawley rat; type: ADME, organism-based; set-up: time infinity; settings: in vivo
[33] = target: Cytochrome P450 2D6 (Homo sapiens, UniProt P10635); assay: Drug metabolism assessed as recombinant human CYP2D6 mediated metabolite formation at 10 uM preincubated for 5 mins followed by addition of NADPH measured after 120 mins by HPLC-TIC chromatography; type: ADME; settings: recombinant enzyme, 2 h
Cytochrome P450 2D6, sequence (P10635 whole entry): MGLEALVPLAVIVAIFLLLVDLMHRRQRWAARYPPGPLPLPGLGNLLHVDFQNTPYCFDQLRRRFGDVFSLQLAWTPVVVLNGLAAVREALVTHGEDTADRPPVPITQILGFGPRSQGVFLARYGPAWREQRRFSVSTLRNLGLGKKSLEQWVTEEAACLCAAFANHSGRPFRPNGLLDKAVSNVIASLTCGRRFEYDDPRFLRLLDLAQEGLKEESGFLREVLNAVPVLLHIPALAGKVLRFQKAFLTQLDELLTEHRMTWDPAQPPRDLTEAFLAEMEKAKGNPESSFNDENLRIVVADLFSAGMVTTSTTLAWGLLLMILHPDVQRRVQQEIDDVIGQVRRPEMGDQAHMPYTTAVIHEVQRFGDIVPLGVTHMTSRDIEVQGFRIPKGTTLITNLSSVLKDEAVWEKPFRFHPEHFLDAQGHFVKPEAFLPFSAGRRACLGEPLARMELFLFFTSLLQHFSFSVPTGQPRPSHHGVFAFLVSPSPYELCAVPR

[34] = system: Plasma; assay: Drug metabolism in Sprague-Dawley rat plasma assessed as metabolite M2 formation at 40 mg/kg, iv administered as single dose after 4 to 24 hrs by HPLC-TIC chromatography; type: ADME, organism-based; settings: in vivo
[35] = Drug metabolism in Sprague-Dawley rat urine assessed as 7-epi-3FDT formation at 40 mg/kg, iv administered as single dose after 24 hrs by HPLC-TIC chromatography; type: ADME, organism-based; settings: in vivo

With CC(=O)O[C@@]12CO[C@@H]1C[C@H](O)[C@@]1(C)C(=O)[C@H](O)C3=C(C)[C@@H](OC(=O)[C@H](O)[C@@H](NC(=O)OC(C)(C)C(F)(F)F)c4ccccc4)C[C@@](O)([C@@H](OC(=O)c4ccccc4)C12)C3(C)C (stereo not given in full) the Drug metabolism [1] was “metabolite_notdetected”, the Drug metabolism [2] was “metabolite_detected” and the Drug metabolism [3] was “metabolite_notdetected”. For the same molecule, the Drug metabolism [4] was “metabolite_detected”, the AUC(0-t) [5] was 3.86 µg·h/mL and the Drug metabolism [6] was “metabolite_detected”. The Drug metabolism [7] was “metabolite_detected”, the clearance [8] was 1.26 L/h/kg and the Drug metabolism [9] was “metabolite_detected”. The Drug metabolism [10] was “metabolite_notdetected”, the Drug metabolism [11] was “metabolite_detected” and the Drug metabolism [12] was “metabolite_notdetected”. The Drug metabolism [13] was “metabolite_notdetected”, the Vd [14] was 18.1 L/kg and the Drug metabolism [15] was “metabolite_detected”. The Drug metabolism [16] was “metabolite_detected”, the Drug metabolism [17] was “metabolite_detected” and the IC50 [18] was 0.01 nM. For the same molecule, the Drug metabolism [19] was “metabolite_notdetected”, the Drug metabolism [20] was “metabolite_notdetected” and the Drug metabolism [21] was “metabolite_detected”. For the same molecule, the Drug metabolism [22] was “metabolite_notdetected”, the Drug metabolism [23] was “metabolite_detected” and the Drug metabolism [24] was “metabolite_detected”. The Drug metabolism [25] was “metabolite_notdetected”, the Drug metabolism [26] was “metabolite_detected” and the Drug metabolism [27] was “metabolite_detected”. The Drug metabolism [28] was “metabolite_notdetected”, the Drug metabolism [29] was “metabolite_detected” and the Drug metabolism [30] was “metabolite_detected”. For the same molecule, the Drug metabolism [31] was “metabolite_notdetected”, the AUC(0-inf) [32] was 3.96 µg·h/mL and the Drug metabolism [33] was “metabolite_notdetected”. For the same molecule, the Drug metabolism [34] was “metabolite_notdetected” and the Drug metabolism [35] was “metabolite_detected”.
